Here are results for seven molecules from ChEMBL document CHEMBL1201862, “PubChem BioAssay data set” (2004).

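Protocol summary: plate cells (96-well), add compound at 5 concentrations, incubate 48 h, interpolate endpoints linearly. The concentration for 50% growth inhibition is given as GI50.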 Active and inactive are the calls of the source. Rule as the data show it: active = GI50 up to about 1.1 µM and inactive = higher. Where only a bound is given, the exact number is not on record here.

Test systems include 786-0; EKVX; HCT-15; HOP-62; KM12; MDA-MB-231; NCI-H226; NCI-H23; NCI-H460; NCI/ADR-RES; OVCAR-3; PC-3; SF-268; SK-MEL-2; SK-MEL-5; SN12C; SR; SW-620; U-251; UO-31.
Assay in all cases: inhibition of tumour cell growth, NCI panel, 48 h

For the molecule `CCSc1nc(COC(=O)NC)c(COC(=O)NC)n1C`, the GI50 with 786-0 is 99.5 µM (inactive); with EKVX, > 100 µM (inactive); in the assay on HCT-15, over 100 µM; in the assay on HOP-62 it was 99.3 µM (inactive); with KM12, > 100 µM (inactive); with MDA-MB-231, > 100 µM (inactive). Besides, the GI50 was > 100 µM (inactive) with NCI-H226; 99.5 µM (inactive) in the assay on NCI-H23; 73.1 µM (inactive) in the assay with NCI-H460; > 100 µM (inactive) in the assay on NCI/ADR-RES; > 100 µM (inactive) in the assay with OVCAR-3; > 82 µM (inactive) with PC-3. Also, the GI50 in the assay with SF-268 is 70.1 µM (inactive); with SK-MEL-2, > 89.7 µM (inactive); with SK-MEL-5 it was > 100 µM (inactive); with SN12C it was > 100 µM (inactive); in the assay with SR, 51.3 µM (inactive); with SW-620, > 100 µM (inactive). The GI50 with U-251 was > 84.9 µM (inactive); in the assay on UO-31, > 95.9 µM (inactive).
In the case of `COc1cc(N(CCC#N)CCC#N)ccc1C(=N/NC(=O)c1cc(Br)ccc1O)/N=N/c1ccccc1`, the GI50 in the assay with 786-0 is 29.1 µM (inactive); in the assay on EKVX it was 21.1 µM (inactive); in the assay on HCT-15, 24.7 µM; in the assay on HOP-62, 24 µM (inactive); with KM12, 28.2 µM (inactive); with MDA-MB-231, 21.2 µM (inactive). Also, the GI50 with NCI-H226 was 33.2 µM (inactive); in the assay on NCI-H23, 21.4 µM (inactive); with NCI-H460 it was 22.6 µM (inactive); in the assay with NCI/ADR-RES it was 32.5 µM (inactive); in the assay on OVCAR-3, 22 µM (inactive); in the assay on PC-3, 25.5 µM (inactive). The GI50 with SF-268 was 28.5 µM (inactive); in the assay on SK-MEL-2, 26.7 µM (inactive); in the assay on SK-MEL-5, 20.1 µM (inactive); in the assay on SN12C, 31.8 µM (inactive); with SR it was 16.9 µM (inactive); with SW-620, 31.6 µM (inactive). Also, the figures for the GI50 in the assay with U-251 and in the assay on UO-31 were 32.1 µM (inactive) and 21.6 µM (inactive), respectively.
For the molecule `O=C(NCCCNCCCNC(=O)c1cc(-c2ccccc2)nc2ccccc12)c1cc(-c2ccccc2)nc2ccccc12`, the GI50 in the assay with 786-0 is 1.74 µM (inactive); with EKVX, 1.68 µM (inactive); in the assay with HCT-15, 2.6 µM; in the assay with HOP-62, 1.11 µM (active); with KM12, 1.99 µM (inactive); with MDA-MB-231, 2.01 µM (inactive). The GI50 with NCI-H226 was 1.69 µM (inactive); in the assay with NCI-H23, 1.86 µM (inactive); in the assay with NCI-H460, 1.75 µM (inactive); in the assay on NCI/ADR-RES, 2.39 µM (inactive); in the assay with OVCAR-3 it was 1.46 µM (inactive); with PC-3, 1.6 µM (inactive). For the same molecule, the GI50 with SF-268 is 1.83 µM (inactive); in the assay with SK-MEL-2, 2 µM (inactive); in the assay with SK-MEL-5, 1.78 µM (inactive); in the assay with SN12C, 1.84 µM (inactive); with SR it was 1.67 µM (inactive); in the assay with SW-620, 2.39 µM (inactive). The figures for the GI50 in the assay with U-251 and in the assay on UO-31 were 1.69 µM (inactive) and 1.83 µM (inactive), respectively.
In the case of `CCOC(CN=C=S)OCC`, the GI50 is > 10 µM (inactive) with 786-0; > 10 µM (inactive) in the assay with EKVX; over 10 µM in the assay on HCT-15; > 10 µM (inactive) in the assay on HOP-62; > 10 µM (inactive) in the assay on KM12; > 10 µM (inactive) in the assay on MDA-MB-231. For the same molecule, the GI50 in the assay with NCI-H226, in the assay with NCI-H23, in the assay on NCI-H460, in the assay on NCI/ADR-RES, in the assay on OVCAR-3 and in the assay on PC-3 was > 10 µM (inactive) each time. Moreover, the GI50 in the assay on SF-268 is > 10 µM (inactive); in the assay with SK-MEL-2 it was > 10 µM (inactive); in the assay with SK-MEL-5, > 10 µM (inactive); with SN12C, > 10 µM (inactive); in the assay with SR, 2.52 µM (inactive); in the assay on SW-620 it was > 10 µM (inactive). The GI50 in the assay on U-251 and in the assay on UO-31 was > 10 µM (inactive) each time.
For `CNc1ncnc(Sc2nc(N)nc3[nH]cnc23)c1[N+](=O)[O-]`, the GI50 is 0.583 µM (active) in the assay with 786-0; 3.08 µM (inactive) with EKVX; 1.54 µM in the assay with HCT-15; 0.675 µM (active) with HOP-62; 2.64 µM (inactive) in the assay with KM12; 1.73 µM (inactive) in the assay with MDA-MB-231. Further, the GI50 in the assay with NCI-H226 is 5.7 µM (inactive); with NCI-H23, 1.21 µM (inactive); in the assay on NCI-H460, 0.552 µM (active); in the assay on NCI/ADR-RES, 0.427 µM (active); with OVCAR-3, 0.75 µM (active); with PC-3, 4.23 µM (inactive). The GI50 in the assay with SF-268 was 0.566 µM (active); in the assay on SK-MEL-2, 0.634 µM (active); with SK-MEL-5, 2.9 µM (inactive); in the assay with SN12C, 0.933 µM (active); with SR, 0.1 µM (active); in the assay on SW-620, 0.94 µM (active). For the same molecule, the values for the GI50 in the assay on U-251 and in the assay on UO-31 were 4.42 µM (inactive) and 0.676 µM (active), respectively.
Turning to `S=C1SCN(C2CCCCCCCCCCC2)CN1C1CCCCCCCCCCC1`, the GI50 was > 100 µM (inactive) in the assay with 786-0; > 100 µM (inactive) in the assay on EKVX; over 100 µM in the assay with HCT-15; 67.6 µM (inactive) with HOP-62; > 100 µM (inactive) in the assay on KM12; > 100 µM (inactive) in the assay with MDA-MB-231. The GI50 in the assay with NCI-H226 is > 100 µM (inactive); in the assay on NCI-H23 it was > 100 µM (inactive); with NCI-H460, > 100 µM (inactive); in the assay on NCI/ADR-RES, > 100 µM (inactive); in the assay with OVCAR-3 it was 34.7 µM (inactive); in the assay with PC-3, > 100 µM (inactive). The GI50 in the assay with SF-268 is > 100 µM (inactive); in the assay on SK-MEL-2 it was > 100 µM (inactive); with SK-MEL-5, > 100 µM (inactive); in the assay on SN12C it was > 100 µM (inactive); in the assay with SR, 71.6 µM (inactive); with SW-620, > 100 µM (inactive). The GI50 with U-251 and in the assay on UO-31 was > 100 µM (inactive) each time.
For the molecule `C=C(C)CCC(=O)[C@](C)(O)[C@H]1[C@H](O)C[C@@]2(C)[C@@H]3CCc4c(cc(OC5OC(CO)C(O)C(O)C5O)c(O)c4C)C3(C)C(=O)C[C@]12C` (stereo not given in full), the GI50 is > 100 µM (inactive) with 786-0; > 100 µM (inactive) in the assay on EKVX; over 100 µM with HCT-15; > 100 µM (inactive) with HOP-62; > 100 µM (inactive) in the assay on KM12; > 100 µM (inactive) in the assay on MDA-MB-231. Besides, the GI50 in the assay on NCI-H226, with NCI-H23, in the assay on NCI-H460, in the assay with NCI/ADR-RES, in the assay on OVCAR-3 and in the assay on PC-3 was > 100 µM (inactive) in each case. The GI50 in the assay with SF-268, in the assay with SK-MEL-2, with SK-MEL-5, in the assay on SN12C, in the assay with SR and in the assay with SW-620 was > 100 µM (inactive) throughout. The GI50 with U-251 and in the assay on UO-31 was > 100 µM (inactive) in each case.
